# Experimental data taken from ChEMBL document CHEMBL1201862, “PubChem BioAssay data set” (2004).
#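 All cell lines were grown in 96-well plates and treated with compound for 48 hours. GI50 is the concentration that inhibits growth by half.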 Calls of active or inactive are those of the source. Cut-off read from the data, not from the text of the source: active = GI50 up to about 1.1 µM and inactive = higher.
# Columns and labels:
# Assay in all cases: DTP human tumour cell line panel, 48 h
# [1] = system: SF-268
# [2] = system: SNB-75
# [3] = system: EKVX
# [4] = system: SK-MEL-28
# [5] = system: MDA-MB-231
# [6] = system: A498
# [7] = system: NCI-H522
# [8] = system: MDA-MB-435
# [9] = system: MOLT-4
# [10] = system: DU-145
# [11] = system: UACC-257
# [12] = system: HCT-15
# [13] = system: U-251
# [14] = system: PC-3
# [15] = system: Malme-3M
# [16] = system: SF-539
# [17] = system: ACHN
# [18] = system: MDA-N
# [19] = system: SF-295
# [20] = system: SK-MEL-5
SMILES,GI50 [1],GI50 [2],GI50 [3],GI50 [4],GI50 [5],GI50 [6],GI50 [7],GI50 [8],GI50 [9],GI50 [10],GI50 [11],GI50 [12],GI50 [13],GI50 [14],GI50 [15],GI50 [16],GI50 [17],GI50 [18],GI50 [19],GI50 [20]
CCOC(=O)C1=C(C)NC(=S)NC1c1cccc(O)c1 (stereo not given) [MONASTROL],56.5 µM (inactive),37.2 µM (inactive),62.7 µM (inactive),81.5 µM (inactive),38.6 µM (inactive),37.1 µM (inactive),30.3 µM (inactive),17.2 µM (inactive),33.6 µM (inactive),76.6 µM (inactive),62.7 µM (inactive),39.4 µM,33.9 µM (inactive),36.1 µM (inactive),60.3 µM (inactive),44.8 µM (inactive),85.3 µM (inactive),18.2 µM (inactive),30.5 µM (inactive),36.6 µM (inactive)
CC1=NN(c2ccc(S(=O)(=O)O)cc2)C(=O)/C1=C/c1ccc(Cl)cc1.c1ccncc1,> 100 µM (inactive),> 100 µM (inactive),> 100 µM (inactive),> 100 µM (inactive),> 100 µM (inactive),> 100 µM (inactive),> 100 µM (inactive),> 100 µM (inactive),> 100 µM (inactive),> 100 µM (inactive),> 100 µM (inactive),> 100 µM,> 100 µM (inactive),> 100 µM (inactive),> 100 µM (inactive),> 100 µM (inactive),> 100 µM (inactive),> 100 µM (inactive),> 100 µM (inactive),> 100 µM (inactive)
Cn1c2ccc(F)cc2c2ccc3c(c21)C(=O)C=CC3=O,21 µM (inactive),33.3 µM (inactive),16 µM (inactive),13.8 µM (inactive),4.09 µM (inactive),55.7 µM (inactive),2.15 µM (inactive),16.4 µM (inactive),0.9 µM (active),22 µM (inactive),9.86 µM (inactive),13.7 µM,14.3 µM (inactive),8.67 µM (inactive),8.71 µM (inactive),16.6 µM (inactive),5.85 µM (inactive),13.3 µM (inactive),66.1 µM (inactive),16.9 µM (inactive)
CCOc1ccc(Nc2nc3c(s2)C(=O)c2ccccc2C3=O)cc1,3.63 µM (inactive),11.1 µM (inactive),20 µM (inactive),18.9 µM (inactive),2.33 µM (inactive),15.8 µM (inactive),7.5 µM (inactive),1.79 µM (inactive),5.08 µM (inactive),14.2 µM (inactive),10.4 µM (inactive),2.55 µM,7.64 µM (inactive),5.56 µM (inactive),2.77 µM (inactive),10.4 µM (inactive),14.5 µM (inactive),1.96 µM (inactive),10.7 µM (inactive),2.27 µM (inactive)
COc1c(Cl)ccc(Cl)c1-c1nnc(-c2c(Cl)c(Cl)c(Cl)c(Cl)c2-c2nc3cc(C(=O)c4ccccc4)ccc3[nH]2)o1,57.1 µM (inactive),33.5 µM (inactive),45.4 µM (inactive),47.2 µM (inactive),43.8 µM (inactive),24.8 µM (inactive),22.9 µM (inactive),21.4 µM (inactive),26.4 µM (inactive),> 100 µM (inactive),82.2 µM (inactive),35.7 µM,61 µM (inactive),46 µM (inactive),47.1 µM (inactive),22.1 µM (inactive),> 100 µM (inactive),20 µM (inactive),29.4 µM (inactive),16.6 µM (inactive)
Cc1ccc([N+](=O)[O-])cc1NC1=NCCO1,> 100 µM (inactive),> 100 µM (inactive),> 100 µM (inactive),> 100 µM (inactive),> 100 µM (inactive),> 100 µM (inactive),> 100 µM (inactive),> 100 µM (inactive),> 100 µM (inactive),> 100 µM (inactive),> 100 µM (inactive),> 100 µM,> 100 µM (inactive),> 100 µM (inactive),> 100 µM (inactive),> 100 µM (inactive),> 100 µM (inactive),> 100 µM (inactive),> 100 µM (inactive),> 100 µM (inactive)
COc1ccc2/c(=C/c3ccc(N(C)C)cc3)c3cc(-c4ccccc4)[n+](C)n3c2c1,0.292 µM (active),0.285 µM (active),0.817 µM (active),0.164 µM (active),0.31 µM (active),0.408 µM (active),0.153 µM (active),0.0875 µM (active),0.18 µM (active),0.179 µM (active),0.135 µM (active),1 µM,< 0.0318 µM (active),0.09 µM (active),0.191 µM (active),0.495 µM (active),0.405 µM (active),0.0889 µM (active),0.194 µM (active),0.0392 µM (active)
CC/C(Cl)=N\OC(=O)Nc1ccc(OC)cc1,14.3 µM (inactive),6.27 µM (inactive),5.9 µM (inactive),6.71 µM (inactive),7.06 µM (inactive),18.2 µM (inactive),0.847 µM (active),8.04 µM (inactive),2.07 µM (inactive),17.3 µM (inactive),15.7 µM (inactive),1.6 µM,19.5 µM (inactive),15.9 µM (inactive),1.84 µM (inactive),4.89 µM (inactive),1.92 µM (inactive),6.14 µM (inactive),17 µM (inactive),6.18 µM (inactive)
CC(=O)OC1CC2CC(=O)CC1N2C (stereo not given),> 100 µM (inactive),> 100 µM (inactive),> 100 µM (inactive),> 100 µM (inactive),> 100 µM (inactive),> 100 µM (inactive),> 100 µM (inactive),> 100 µM (inactive),> 100 µM (inactive),> 100 µM (inactive),> 100 µM (inactive),> 100 µM,> 100 µM (inactive),> 100 µM (inactive),> 100 µM (inactive),> 100 µM (inactive),> 100 µM (inactive),> 100 µM (inactive),> 100 µM (inactive),> 100 µM (inactive)
